Data as given in ChEMBL document CHEMBL1201862, “PubChem BioAssay data set” (2004).
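How tested: cells in 96-well plates exposed to compound for 48 hours at five concentrations. GI50 is the concentration that inhibits growth by half.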 Calls of active or inactive are those of the source. No stated cut-off is given here; in the data, active = GI50 up to about 1.1 µM and inactive = higher.

Legend:
Experiment in all cases: NCI anticancer screen, dose series, 48 h
A498 = test system: A498
OVCAR-5 = test system: OVCAR-5
DU-145 = test system: DU-145
HCC 2998 = test system: HCC 2998
HOP-62 = test system: HOP-62
MDA-MB-435 = test system: MDA-MB-435
SK-MEL-28 = test system: SK-MEL-28
SNB-75 = test system: SNB-75
SK-MEL-2 = test system: SK-MEL-2
NCI-H522 = test system: NCI-H522
OVCAR-4 = test system: OVCAR-4
KM12 = test system: KM12
HL-60 = test system: HL-60
PC-3 = test system: PC-3
K562 = test system: K562
MDA-MB-231 = test system: MDA-MB-231
HCT-15 = test system: HCT-15
SN12C = test system: SN12C
SK-OV-3 = test system: SK-OV-3
786-0 = test system: 786-0

Structure (SMILES)	GI50 (A498)	GI50 (OVCAR-5)	GI50 (DU-145)	GI50 (HCC 2998)	GI50 (HOP-62)	GI50 (MDA-MB-435)	GI50 (SK-MEL-28)	GI50 (SNB-75)	GI50 (SK-MEL-2)	GI50 (NCI-H522)	GI50 (OVCAR-4)	GI50 (KM12)	GI50 (HL-60)	GI50 (PC-3)	GI50 (K562)	GI50 (MDA-MB-231)	GI50 (HCT-15)	GI50 (SN12C)	GI50 (SK-OV-3)	GI50 (786-0)
O=C(OC1OC2COC(=O)c3cc(O)c(O)c(O)c3-c3c(cc(O)c(O)c3O)C(=O)OC3C2OC(=O)[C@@]24CC(=O)[C@@](O)(OC25C(=O)O[C@H]2[C@@H](O)CO[C@@]25O)C2(O)Oc5c(O)c(O)cc(c5C24)C(=O)OC13)c1cc(O)c(O)c(O)c1 (stereo not given in full)	9.12 µM (inactive)	47.2 µM (inactive)	44.7 µM (inactive)	28 µM (inactive)	74.5 µM (inactive)	17.2 µM (inactive)	> 100 µM (inactive)	34 µM (inactive)	> 100 µM (inactive)	19.5 µM (inactive)	37.2 µM (inactive)	18.8 µM (inactive)	21.2 µM (inactive)	42.3 µM (inactive)	30.1 µM (inactive)	0.857 µM (active)	22.9 µM	56 µM (inactive)	83 µM (inactive)	63.1 µM (inactive)
CC(=O)C1=C(C)N(c2ccccc2)C2(O)C=CC(O)=C3C(=O)c4ccccc4C(=O)C312 (stereo not given)	23 µM (inactive)	15.8 µM (inactive)	9.04 µM (inactive)	10.6 µM (inactive)	32.9 µM (inactive)	2.45 µM (inactive)	19 µM (inactive)	35.2 µM (inactive)	15.3 µM (inactive)	16.3 µM (inactive)	20.9 µM (inactive)	13.5 µM (inactive)	5.69 µM (inactive)	17.8 µM (inactive)	8.13 µM (inactive)	17.7 µM (inactive)	6.47 µM	10.6 µM (inactive)	48.4 µM (inactive)	20 µM (inactive)
CCN1CCc2sc3nc(S)n(C)c(=O)c3c2C1	> 100 µM (inactive)	> 100 µM (inactive)	> 100 µM (inactive)	> 100 µM (inactive)	> 100 µM (inactive)	> 100 µM (inactive)	> 100 µM (inactive)	> 100 µM (inactive)	> 100 µM (inactive)	> 100 µM (inactive)	> 100 µM (inactive)	> 100 µM (inactive)	< 0.01 µM (active)	> 100 µM (inactive)	> 100 µM (inactive)	> 100 µM (inactive)	> 100 µM	> 100 µM (inactive)	> 100 µM (inactive)	> 100 µM (inactive)
COc1cc(NS(C)(=O)=O)ccc1NCc1c[nH]c2ccc3ncccc3c12	23.1 µM (inactive)	20.9 µM (inactive)	23.9 µM (inactive)	18.9 µM (inactive)	22.2 µM (inactive)	19.3 µM (inactive)	23.1 µM (inactive)	14.3 µM (inactive)	19.5 µM (inactive)	14.2 µM (inactive)	20.7 µM (inactive)	17.1 µM (inactive)	0.871 µM (active)	19.4 µM (inactive)	9.12 µM (inactive)	19.7 µM (inactive)	21.7 µM	20.6 µM (inactive)	16.5 µM (inactive)	15.6 µM (inactive)
CCOC(=O)C12CCC(c3c(C)cccc3C)(O1)C(C(=O)OC)=C2C(=O)OC (stereo not given)	2.14 µM (inactive)	3.19 µM (inactive)	4.24 µM (inactive)	6.7 µM (inactive)	4.11 µM (inactive)	0.499 µM (active)	> 7.5 µM (inactive)	3.64 µM (inactive)	> 8.99 µM (inactive)	5.38 µM (inactive)	> 9.02 µM (inactive)	4.28 µM (inactive)	1.82 µM (inactive)	2.09 µM (inactive)	3.62 µM (inactive)	5.07 µM (inactive)	4.69 µM	> 6.75 µM (inactive)	5.09 µM (inactive)	3.08 µM (inactive)
CCC(C)C1(O)OC2CC3(C)OC(=CC3=O)/C(C)=C\C3OC(=O)C1(C)C32 (stereo not given)	25.2 µM (inactive)	28.3 µM (inactive)	4.68 µM (inactive)	15.2 µM (inactive)	22.8 µM (inactive)	11.9 µM (inactive)	14.3 µM (inactive)	37.2 µM (inactive)	21.3 µM (inactive)	3.92 µM (inactive)	42.5 µM (inactive)	10.6 µM (inactive)	3.12 µM (inactive)	37.2 µM (inactive)	7.6 µM (inactive)	19.1 µM (inactive)	3.3 µM	11.8 µM (inactive)	37.6 µM (inactive)	16.6 µM (inactive)
Clc1ccc(Cn2cc(/C=N/n3cnnc3)c3ccccc32)cc1	1.49 µM (inactive)	11.7 µM (inactive)	> 100 µM (inactive)	14.4 µM (inactive)	74.3 µM (inactive)	83.9 µM (inactive)	> 100 µM (inactive)	21.1 µM (inactive)	26.7 µM (inactive)	23.2 µM (inactive)	33.5 µM (inactive)	70.3 µM (inactive)	40.6 µM (inactive)	52.1 µM (inactive)	22.5 µM (inactive)	20.4 µM (inactive)	60.1 µM	45.9 µM (inactive)	42.6 µM (inactive)	57.9 µM (inactive)
